Laboratory results from ChEMBL document CHEMBL4052628, “Synthesis and cytotoxicity of a novel series of saframycin-ecteinascidin analogs containing tetrahydro-β-carboline moieties” (Eur J Med Chem, 2017).

Key:
Format in all cases: functional, cell-based
[1] = tested on: HCT-116; test: Cytotoxicity against human HCT116 cells assessed as reduction in cell viability after 72 hrs by MTT assay; settings: HCT-116, 72 h
[2] = tested on: A2780; test: Cytotoxicity against human A2780 cells assessed as reduction in cell viability after 72 hrs by MTT assay; settings: A2780, 72 h
[3] = tested on: BGC-823; test: Cytotoxicity against human BGC823 cells assessed as reduction in cell viability after 72 hrs by MTT assay; settings: BGC-823, 72 h
[4] = tested on: MCF7; test: Cytotoxicity against human MCF7 cells assessed as reduction in cell viability after 72 hrs by MTT assay; settings: MCF7, 72 h
[5] = tested on: HepG2; test: Cytotoxicity against human HepG2 cells assessed as reduction in cell viability after 72 hrs by MTT assay; settings: HepG2, 72 h
[6] = tested on: HT-29; test: Cytotoxicity against human HT-29 cells assessed as reduction in cell viability after 72 hrs by MTT assay; settings: HT-29, 72 h

Row | Compound | IC50 [1] [nM] | IC50 [2] [nM] | IC50 [3] [nM] | IC50 [4] [nM] | IC50 [5] [nM] | IC50 [6] [nM]
1 | CN1[C@@H]2c3[nH]c4ccccc4c3C[C@H]1[C@H](C#N)N1[C@@H](CNC(=O)c3ccc(Cl)cc3)c3[nH]c4ccccc4c3C[C@@H]21 | 630 | 230 | 110 | 610 | 350 | 130
2 | CN1[C@@H]2c3[nH]c4ccccc4c3C[C@H]1[C@H](C#N)N1[C@@H](CNC(=O)c3ccccn3)c3[nH]c4ccccc4c3C[C@@H]21 | 40 | 30 | 80 | 40 | 70 | 70
3 | COc1ccc(C(=O)NC[C@H]2c3[nH]c4ccccc4c3C[C@H]3[C@H]4c5[nH]c6ccccc6c5C[C@@H]([C@H](C#N)N23)N4C)cc1 | 430 | 320 | 320 | 600 | 310 | 840
4 | CN1[C@@H]2c3[nH]c4ccccc4c3C[C@H]1[C@H](C#N)N1[C@@H](CNC(=O)c3ccc(F)cc3)c3[nH]c4ccccc4c3C[C@@H]21 | 140 | 250 | 310 | 980 | 210 | 1370
5 | CN1[C@@H]2c3[nH]c4ccccc4c3C[C@H]1[C@H](C#N)N1[C@@H](CNC(=O)c3ccccc3)c3[nH]c4ccccc4c3C[C@@H]21 | 430 | 200 | 740 | 9670 | 250 | 140
6 | COc1ccc(/C=C/C(=O)NC[C@H]2c3[nH]c4ccccc4c3C[C@H]3[C@H]4c5[nH]c6ccccc6c5C[C@@H]([C@H](C#N)N23)N4C)cc1 | 5060 | 860 | 5450 | 4220 | 2140 | 3060
7 | CN1[C@@H]2c3[nH]c4ccccc4c3C[C@H]1[C@H](C#N)N1[C@@H](CNC(=O)c3cc4ccccc4s3)c3[nH]c4ccccc4c3C[C@@H]21 | 500 | 20 | 240 | 3180 | 300 | 640
8 | CN1[C@@H]2c3[nH]c4ccccc4c3C[C@H]1[C@H](C#N)N1[C@@H](CNC(=O)c3cccc(C(F)(F)F)c3)c3[nH]c4ccccc4c3C[C@@H]21 | 630 | 210 | 870 | 110 | 340 | 140
9 | CN1[C@@H]2c3[nH]c4ccccc4c3C[C@H]1[C@H](C#N)N1[C@@H](CNC(=O)c3ccc4ccccc4c3)c3[nH]c4ccccc4c3C[C@@H]21 | 420 | 1030 | 1110 | 4650 | 1210 | 4940
10 | CN1[C@@H]2c3[nH]c4ccccc4c3C[C@H]1[C@H](C#N)N1[C@@H](CNC(=O)c3ccco3)c3[nH]c4ccccc4c3C[C@@H]21 | 170 | 120 | 300 | 160 | 250 | 100
11 | CN1[C@@H]2c3[nH]c4ccccc4c3C[C@H]1[C@H](C#N)N1[C@@H](CNC(=O)c3cc4ccccc4o3)c3[nH]c4ccccc4c3C[C@@H]21 | 330 | 230 | 210 | 320 | 280 | 850
12 | CN1[C@@H]2c3[nH]c4ccccc4c3C[C@H]1[C@H](C#N)N1[C@@H](CNC(=O)/C=C/c3ccccc3)c3[nH]c4ccccc4c3C[C@@H]21 | 1960 | 770 | 4300 | 7190 | 470 | 1400
13 | CC(=O)NC[C@H]1c2[nH]c3ccccc3c2C[C@H]2[C@H]3c4[nH]c5ccccc5c4C[C@@H]([C@H](C#N)N12)N3C | 4340 | 630 | 2200 | 5300 | 420 | 1180
14 | CN1[C@@H]2c3[nH]c4ccccc4c3C[C@H]1[C@H](C#N)N1[C@@H](CNC(=O)/C=C/c3cccc(C(F)(F)F)c3)c3[nH]c4ccccc4c3C[C@@H]21 | 610 | > 10000 | 910 | 110 | 540 | 5060
15 | CN1[C@@H]2c3[nH]c4ccccc4c3C[C@H]1[C@H](C#N)N1[C@@H](CNC(=O)c3cccc4c3CCCC4)c3[nH]c4ccccc4c3C[C@@H]21 | 4210 | 810 | 3540 | 4470 | 540 | 3340
16 | CN1[C@@H]2c3[nH]c4ccccc4c3C[C@H]1[C@H](C#N)N1[C@@H](CN3C(=O)c4ccccc4C3=O)c3[nH]c4ccccc4c3C[C@@H]21 | 40 | 80 | 410 | 610 | 20 | 80
17 | CN1[C@@H]2c3[nH]c4ccccc4c3C[C@H]1[C@H](C#N)N1[C@@H](CNC(=O)c3ccc4ccccc4n3)c3[nH]c4ccccc4c3C[C@@H]21 | 240 | 60 | 80 | 150 | 110 | 150
18 | CN1[C@@H]2c3[nH]c4ccccc4c3C[C@H]1[C@H](C#N)N1[C@@H](CNC(=O)c3cccs3)c3[nH]c4ccccc4c3C[C@@H]21 | 550 | 230 | 280 | 470 | 180 | 1330
19 | CN1[C@@H]2c3[nH]c4ccccc4c3C[C@H]1[C@H](C#N)N1[C@@H](CNC(=O)c3cc4ccccc4[nH]3)c3[nH]c4ccccc4c3C[C@@H]21 | 880 | 7100 | 1690 | 9780 | 440 | 1220
20 | CCc1ccc(C(=O)NC[C@H]2c3[nH]c4ccccc4c3C[C@H]3[C@H]4c5[nH]c6ccccc6c5C[C@@H]([C@H](C#N)N23)N4C)cc1 | 100 | 670 | 660 | 170 | 570 | 3560
